# Marks after values point to notes of the source that are not given here.
# Columns and labels:
# [1] = Particle size and polydispersity index of nanoparticle compositions (Zetasizer Nano ZS); type: physicochemical
# Outline: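 Particle size and PDI were measured on a Zetasizer Nano ZS with the nanoparticle compositions dispersed in 1×PBS.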
# IL-6, IP-10 = experiment: Cytokine induction in mice upon intravenous administration; type: in vivo; set-up: Cytokine induction IL-6 / Cytokine induction IP-10: unit not given here; conditions: 0.5 mpk, 6 hours; for Cytokine induction IL-6 / Cytokine induction IP-10: intravenous
# Outline: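 Mice dosed intravenously with nanoparticle compositions at 0.5 mpk; serum cytokine concentrations (IL-6, IP-10) measured at 6 hours. MC3 formulation and PBS controls run alongside.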
# luciferase mRNA = experiment: Luciferase expression after subcutaneous administration to mice; type: in vivo, female CD-1 mice; conditions: for Novel lipid/MC3 expression ratio, 6 hr. time point, s.c. Luc 0.5 mpk / Novel lipid/MC3 expression ratio, s.c. Luc 0.5 mpk (AUC) / Lipid/MC3 AUC ratio / AUC (luciferase expression): 0.5 mpk; for Lipid/MC3 AUC ratio: luciferase; for AUC (luciferase expression): whole body BLI; for Novel lipid/MC3 ratio, s.c. Luc 6 hr.: relative to MC3, Table 3G
# Outline: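 Female CD-1 mice given luciferase mRNA in lipid nanoparticle formulations subcutaneously at 0.5 mpk. Expression read by whole-body bioluminescence imaging at 3, 6 and 24 h, with ex vivo liver, spleen and injection-site luminescence at 24 h.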
# luciferase (Luc) mRNA = experiment: Luc expression in liver, lung, spleen and femur 6 hours after intravenous administration; type: in vivo; conditions: mice, 0.5 mpk; for Total Flux Femur / Total Flux Liver / Total Flux Lung / Total Flux Spleen: intravenous
# Outline: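 LNP-formulated mRNA given IV to mice (n=3) at 0.5 mpk; at 6 h, bioluminescence imaged ex vivo 15 min after IP D-luciferin (15 mg/mL, 200 μL), organs imaged within 25 min. Values are total flux by region of interest.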
# hEPO mRNA = experiment: hEPO expression after intramuscular administration to mice; type: in vivo; conditions: for Lipid/MC3 6 h timepoint / Lipid/MC3 AUC: Table 3I, hEPO; for Fold increase in hEPO concentration relative to MC3: mice, 0.01 mpk, 6 hr time point; for Novel lipid/MC3 expression ratio, 6 hr. time point, i.m. hEPO: relative to MC3 formulation
# Description: The expression of hEPO and cytokine induction in mice intravenously administered a nanoparticle composition at a dose of 0.5 mpk were measured at 3, 6, and 24 hours. […] The expression of hEPO in mice intramuscularly administered a nanoparticle composition from Table 1B at a dose of 0.01 mpk were measured at 3, 6, and 24 hours.
# Blood collection and analysis for hEPO. Blood was collected from mice or rats via the tail vein and hEPO concentrations were determined using a hEPO ELISA assay.
# [2] = Table 1A, lipid:DSPC:cholesterol:PEG-DMG 50:10:38.5:1.5 mol %
# [3] = Table 1E, compositions for subcutaneous administration
# [4] = Table 1C, compositions for subcutaneous administration
# [5] = Table 1D, for subcutaneous administration, # formulated with hEPO mRNA
# [6] = Table 1B, formulated with hEPO mRNA
SMILES,PDI ([1]; Table 1A),"Size (nm) [1, 2]","PDI [1, 3]","Size (nm) [1, 3]","Cytokine induction IL-6 (IL-6, IP-10)","Cytokine induction IP-10 (IL-6, IP-10)","Novel lipid/MC3 expression ratio, 6 hr. time point, s.c. Luc 0.5 mpk (luciferase mRNA; relative to MC3)",Total Flux Femur (luciferase (Luc) mRNA),Total Flux Liver (luciferase (Luc) mRNA),Total Flux Lung (luciferase (Luc) mRNA),Total Flux Spleen (luciferase (Luc) mRNA),"PDI [1, 5]","Size (nm) [1, 5]",Fold increase in hEPO concentration relative to MC3 (hEPO mRNA),"PDI [1, 6]","Size (nm) [1, 6]",also measured
"CCCCCCCCCOC(=O)CCCCCCCN(CCCO)CCCCCCCC(=O)OC(CCCCCCCC)CCCCCCCC [Compound 19, Heptadecan-9-yl 8-((3-hydroxypropyl)(8-(nonyloxy)-8-oxooctyl)amino) octanoate]",0.17,101.1 nm,0.13,80.7 nm,285.56,1468.94,2.13,1.68E+06,6.33E+08,5.99E+06,1.77E+07,–,–,–,–,–,"IL-6 induction (IL-6, IP-10; i.v., in words): highest"
"CCCCCCCCCOC(=O)CCCCCCCN(CCCCO)CCCCCCCC(=O)OC(CCCCCCCC)CCCCCCCC [Compound 20, Heptadecan-9-yl 8-((4-hydroxybutyl)(8-(nonyloxy)-8-oxooctyl)amino) octanoate]",0.13,86.7 nm,–,–,126.83,2468.24,–,1.31E+07,1.84E+09,2.66E+07,1.43E+08,–,–,–,–,–,"PDI [1, 4]: 0.13; Size (nm) [1, 4]: 86.7 nm; IP-10 induction (IL-6, IP-10; i.v., in words): highest; Novel lipid/MC3 expression ratio, s.c. Luc 0.5 mpk (AUC) (luciferase mRNA; relative to MC3): (AUC: 4.02); Lipid/MC3 AUC ratio (luciferase mRNA): 4.02; AUC (luciferase expression) (luciferase mRNA): 6.8926E+10 (p/s) * h; Novel lipid/MC3 ratio, s.c. Luc 6 hr. (luciferase mRNA): 4.00"
"CCCCCCCCCOC(=O)CCCCCCCN(CCO)CCCCCCCCCC(=O)OC(CCCCCCCC)CCCCCCCC [Compound 23, Heptadecan-9-yl 10-((2-hydroxyethyl)(8-(nonyloxy)-8-oxooctyl)amino) decanoate]",0.09,104.5 nm,0.13,70.5 nm,94.00,1015.95,1.02,1.19E+06,2.92E+08,1.82E+06,3.08E+07,–,–,–,–,–,–
"CCCCCC/C=C\COC(=O)CCCCCCCN(CCO)CCCCCCCC(=O)OC(CCCCCCCC)CCCCCCCC [Compound 24, Heptadecan-9-yl (Z)-8_((2-hydroxyethyl) (8-(non-2-en-1-yloxy)-8-oxooctyl)amino)octanoate]",0.13,99.5 nm,–,–,163.53,1172.93,–,4.54E+06,4.19E+09,1.71E+07,8.78E+07,–,–,–,–,–,"PDI [1, 4]: 0.17; Size (nm) [1, 4]: 88.5 nm; Novel lipid/MC3 expression ratio, s.c. Luc 0.5 mpk (AUC) (luciferase mRNA; relative to MC3): (AUC: 5.21); Lipid/MC3 AUC ratio (luciferase mRNA): 5.21; AUC (luciferase expression) (luciferase mRNA): 8.9281E+10 (p/s) * h; Novel lipid/MC3 ratio, s.c. Luc 6 hr. (luciferase mRNA): 5.79"
"CCCCCCCCCOC(=O)CCCCCCCN(CCO)CCCCCC(=O)OC(CCCCCCCC)CCCCCCCC [Compound 27, Nonyl 8-((6-(heptadecan-9-yloxy)-6-oxohexyl)(2-hydroxyethyl)amino) octanoate]",0.18,82.3 nm,–,–,161.07,345.56,–,2.00E+06,2.16E+09,6.35E+06,3.78E+06,–,–,–,–,–,"Novel lipid/MC3 expression ratio, 6 hr. time point, s.c. Luc 0.05 mpk (luciferase mRNA; 0.05 mpk, relative to MC3): 14.45"
"CCCCCCCCC(C)OC(=O)CCCCCCCN(CCO)CCCCCCCC(=O)OC(CCCCCCCC)CCCCCCCC (centres unmarked) [Compound 48, decan-2-yl 8-((8-(heptadecan-9-yloxy)-8-oxooctyl)(2-hydroxyethyl)amino)octanoate]",0.092,82.3 nm,–,–,–,–,–,–,1.08E+10,3.31E+07,3.49E+08,0.09,79.8 nm,–,–,–,"Lipid/MC3 6 h timepoint (hEPO mRNA): 8.2; Lipid/MC3 AUC (hEPO mRNA): 7.5; PDI ([1]; nanoparticle composition with hEPO mRNA (Table 30)): 0.176; Size ([1]; nanoparticle composition with hEPO mRNA, standard MC3 formulation (Table 30)): 70.6 nm; Flux in the liver (luciferase (Luc) mRNA; i.v., in words): highest; Flux in the spleen (luciferase (Luc) mRNA; i.v., in words): highest"
"CCCCCCCCC(CC)OC(=O)CCCCCCCN(CCO)CCCCCCCC(=O)OC(CCCCCCCC)CCCCCCCC (centres unmarked) [Compound 49, heptadecan-9-yl 8-((2-hydroxyethyl)(8-oxo-8-(undecan-3-yloxy)octyl)amino)octanoate]",0.14,88 nm,–,–,–,–,–,–,5.68E+09,2.52E+07,1.87E+08,0.09,74.0 nm,–,–,–,Lipid/MC3 6 h timepoint (hEPO mRNA): 11.0; Lipid/MC3 AUC (hEPO mRNA): 9.9
"CCCC/C=C\CCC(CC/C=C\CCCC)OC(=O)CCCCCCCN(CCO)CCCCCCCC(=O)OCCCCCCCCC [Compound 60, (5Z,12Z)-Heptadeca-5,12-dien-9-yl 8-((2-hydroxyethyl)(8-(nonyloxy)-8-oxooctyl)amino)octanoate]",0.12,95.1 nm,0.12,93.3 nm,–,–,1.72,–,1.54E+09,6.25E+06,7.12E+06,0.13,87.4 nm,11.2,0.15,88.9 nm,"Novel lipid/MC3 expression ratio, 6 hr. time point, i.m. hEPO (hEPO mRNA): 11.2"
"CCCCCCCCCOC(=O)CCCCCCCN(CCCCCCCC(=O)OC(CCCCCCCC)CCCCCCCC)CCCNC(C)=O [Compound 108, Heptadecan-9-yl 8-((3-acetamidopropyl)(8-(nonyloxy)-8-oxooctyl)amino)octanoate]",0.14,119 nm,0.15,96.1 nm,–,–,0.22,–,4.63E+08,9.81E+06,7.82E+08,–,–,3.7,0.22,89.6 nm,"Flux in the spleen (luciferase (Luc) mRNA; i.v., in words): highest"
"CCCCCCCCCOC(=O)CCCCCCCN(CCCCCCCC(=O)OC(CCCCCCCC)CCCCCCCC)CCCNS(C)(=O)=O [Compound 109, Heptadecan-9-yl 8-((3-(methylsulfonamido)propyl)(8-(nonyloxy)-8-oxooctyl)amino)octanoate]",0.13,81.1 nm,0.10,67.0 nm,–,–,0.49,–,8.17E+08,6.03E+06,4.81E+07,–,–,5.3,0.099,75 nm,–
"CCCCCCCCCOC(=O)CCCCCCCN(CCCCCCCC(=O)OC(CCCCCCCC)CCCCCCCC)CCCNC(=O)N(C)C [Compound 110, Heptadecan-9-yl 8-((3-(3,3-dimethylureido)propyl)(8-(nonyloxy)-8-oxooctyl)amino)octanoate]",0.21,91.5 nm,–,–,–,–,–,–,2.30E+08,5.76E+06,1.41E+08,–,–,1.2,0.24,73.3 nm,"Novel lipid/MC3 ratio, 6 hr. timepoint, i.m. hEPO (hEPO mRNA; relative to MC3, Table 3G): 1.2; PDI [1, 4]: 0.21; Size (nm) [1, 4]: 91.5 nm; Novel lipid/MC3 expression ratio, s.c. Luc 0.5 mpk (AUC) (luciferase mRNA; relative to MC3): (AUC: 0.76); Lipid/MC3 AUC ratio (luciferase mRNA): 0.76; AUC (luciferase expression) (luciferase mRNA): 1.2968E+10 (p/s) * h; Novel lipid/MC3 ratio, s.c. Luc 6 hr. (luciferase mRNA): 0.78"
"CCCCCCCCCOC(=O)CCCCCCCN(CCCCCCCC(=O)OC(CCCCCCCC)CCCCCCCC)CCCNC(=S)N(C)C [Compound 111, Heptadecan-9-yl 8-((3-(3,3-dimethylthioureido)propyl)(8-(nonyloxy)-8-oxooctyl)amino)octanoate]",0.22,116.7 nm,0.16,88.9 nm,–,–,1.16,–,4.83E+09,2.57E+07,2.44E+08,0.12,94.5 nm,10.6,0.13,93.3 nm,"Novel lipid/MC3 expression ratio, 6 hr. time point, i.m. hEPO (hEPO mRNA): 10.6"

# — US12263248B2, “Compounds and compositions for intracellular delivery of therapeutic agents” (ModernaTX, Inc., priority 2018, dated 2025)
